From US7659404B2, “Broad spectrum 2-(substituted-amino)-benzothiazole sulfonamide HIV protease inhibitors” (Tibotec Pharmaceuticals Ltd., priority 2001, dated 2010)

Columns and labels:
[1] = test system: clinically isolated HIV strain Q; experiment: Antiviral spectrum, cellular assay (fold resistance), strain Q; assay type: cell-based; details: FR=EC50(mutant strain)/EC50(HIV-1 strain LAI)
Protocol: (§1) HIV- or mock-infected MT4 cells were incubated for five days in the presence of various concentrations of the inhibitor. At the end of the incubation period, all HIV-infected cells have been killed by the replicating virus in the control cultures in the absence of any inhibitor. Cell viability is measured by measuring the concentration of MTT, a yellow, water soluble tetrazolium dye that is converted to a purple, water insoluble formazan in the mitochondria of living cells only. Upon solubilization of the resulting formazan crystals with isopropanol, the absorbance of the solution is monitored at 540 nm. The values correlate directly to the number of living cells remaining in the culture at the completion of the five day incubation. The inhibitory activity of the compound was monitored on the virus-infected cells and was expressed as EC50 and EC90. These values represent the amount of the compound required to protect 50% and 90%, respectively, of the cells from the cytopathogenic effect of the virus. The toxicity of the compound was measured on the mock-infected cells and was expressed as CC50, which represents the concentration of compound required to inhibit the growth of the cells by 50%. The selectivity index (SI) (ratio CC50/EC50) is an indication of the selectivity of the anti-HIV activity of the inhibitor.
(§2) Because of the increasing emergence of drug resistant HIV strains, the present compounds were tested for their potency against clinically isolated HIV strains harboring several mutations. These mutations are associated with resistance to protease inhibitors and result in viruses that show various degrees of phenotypic cross-resistance to the currently commercially available drugs such as for instance saquinavir, ritonavir, nelfinavir, indinavir and amprenavir.
(§3) As a measure of the broad spectrum activity of the present compounds, the fold resistance (FR) defined as FR=EC50(mutant strain)/EC50(HIV-1 strain LAI).

[2] = test system: clinically isolated HIV strain B; experiment: Antiviral spectrum, cellular assay (fold resistance), strain B; assay type: cell-based; details: FR=EC50(mutant strain)/EC50(HIV-1 strain LAI)
Protocol: as §1, §2, §3

[3] = test system: clinically isolated HIV strain C; experiment: Antiviral spectrum, cellular assay (fold resistance), strain C; assay type: cell-based; details: FR=EC50(mutant strain)/EC50(HIV-1 strain LAI)
Protocol: as §1, §2, §3

[4] = test system: clinically isolated HIV strain K; experiment: Antiviral spectrum, cellular assay (fold resistance), strain K; assay type: cell-based; details: FR=EC50(mutant strain)/EC50(HIV-1 strain LAI)
Protocol: as §1, §2, §3

virus strain F (R13025) = experiment: microbe, parasite or virus in culture; assay type: cell-based, HIV; details: FR=EC50(mutant strain)/EC50(HIV-1 strain LAI); strain F
Summary of the method: (§4)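 Anti-HIV activity against multiply mutated clinical isolates is measured in MT4 cells over a five-day incubation, using MTT viability (540 nm) as a proxy for protection from viral cytopathicity. Values are reported as EC50 or as fold change versus the LAI reference strain.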

virus strain S (R13080) = experiment: microbe, parasite or virus in culture; assay type: cell-based, HIV; details: FR=EC50(mutant strain)/EC50(HIV-1 strain LAI); strain S
Summary of the method: as §4

[5] = test system: clinically isolated HIV strain D; experiment: Antiviral spectrum, cellular assay (fold resistance), strain D; assay type: cell-based; details: FR=EC50(mutant strain)/EC50(HIV-1 strain LAI)
Protocol: as §1, §2, §3

[6] = test system: clinically isolated HIV strain M; experiment: Antiviral spectrum, cellular assay (fold resistance), strain M; assay type: cell-based; details: FR=EC50(mutant strain)/EC50(HIV-1 strain LAI)
Protocol: as §1, §2, §3

[7] = test system: clinically isolated HIV strain R; experiment: Antiviral spectrum, cellular assay (fold resistance), strain R; assay type: cell-based; details: FR=EC50(mutant strain)/EC50(HIV-1 strain LAI)
Protocol: as §1, §2, §3

[8] = test system: clinically isolated HIV strain J; assay type: cell-based; details: FR=EC50(mutant strain)/EC50(HIV-1 strain LAI)
Summary of the method: as §4

[9] = test system: clinically isolated HIV strain T; assay type: cell-based; details: FR=EC50(mutant strain)/EC50(HIV-1 strain LAI)
Summary of the method: as §4

[10] = test system: clinically isolated HIV strain H; assay type: cell-based; details: FR=EC50(mutant strain)/EC50(HIV-1 strain LAI)
Summary of the method: as §4

[11] = test system: clinically isolated HIV strain O; assay type: cell-based; details: FR=EC50(mutant strain)/EC50(HIV-1 strain LAI)
Summary of the method: as §4

[12] = test system: clinically isolated HIV strain I; assay type: cell-based; details: FR=EC50(mutant strain)/EC50(HIV-1 strain LAI)
Summary of the method: as §4

[13] = test system: clinically isolated HIV strain A; experiment: Antiviral spectrum, cellular assay (fold resistance), strain A; assay type: cell-based; details: FR=EC50(mutant strain)/EC50(HIV-1 strain LAI)
Protocol: as §1, §2, §3

[14] = test system: clinically isolated HIV strain P; experiment: Antiviral spectrum, cellular assay (fold resistance), strain P; assay type: cell-based; details: FR=EC50(mutant strain)/EC50(HIV-1 strain LAI)
Protocol: as §1, §2, §3

[15] = test system: clinically isolated HIV strain N; experiment: Antiviral spectrum, cellular assay (fold resistance), strain N; assay type: cell-based; details: FR=EC50(mutant strain)/EC50(HIV-1 strain LAI)
Protocol: as §1, §2, §3

[16] = test system: clinically isolated HIV strain G; experiment: Antiviral spectrum, cellular assay (fold resistance), strain G; assay type: cell-based; details: FR=EC50(mutant strain)/EC50(HIV-1 strain LAI)
Protocol: as §1, §2, §3

[17] = test system: clinically isolated HIV strain E; experiment: Antiviral spectrum, cellular assay (fold resistance), strain E; assay type: cell-based; details: FR=EC50(mutant strain)/EC50(HIV-1 strain LAI)
Protocol: as §1, §2, §3

[18] = test system: clinically isolated HIV strain L; experiment: Antiviral spectrum, cellular assay (fold resistance), strain L; assay type: cell-based; details: FR=EC50(mutant strain)/EC50(HIV-1 strain LAI)
Protocol: as §1, §2, §3

HIV-1 strain LAI = experiment: Cellular anti-HIV assay in MT4 cells (MTT), wild type laboratory strain; assay type: cell-based; details: Human immunodeficiency virus 1, 120 h; MT4 cells, five days, MTT; read-out: EC50 value against HIV-1 strain LAI
Protocol: The compounds of the present invention were examined for anti-viral activity in a cellular assay. […] The cellular assay was performed according to the following procedure.
Cellular Assay Experimental Method:
as §1

| SMILES | fold resistance (FR), strain Q [1] | fold resistance (FR), strain B [2] | fold resistance (FR), strain C [3] | fold resistance (FR), strain K [4] | fold resistance (FR), strain F (virus strain F (R13025)) | fold resistance (FR), strain S (virus strain S (R13080)) | fold resistance (FR), strain D [5] | fold resistance (FR), strain M [6] | fold resistance (FR), strain R [7] | fold resistance (FR), strain J [8] | fold resistance (FR), strain T [9] | fold resistance (FR), strain H [10] | fold resistance (FR), strain O [11] | fold resistance (FR), strain I [12] | fold resistance (FR), strain A [13] | fold resistance (FR), strain P [14] | fold resistance (FR), strain N [15] | fold resistance (FR), strain G [16] | fold resistance (FR), strain E [17] | fold resistance (FR), strain L [18] | other results |
| --- | --- | --- | --- | --- | --- | --- | --- | --- | --- | --- | --- | --- | --- | --- | --- | --- | --- | --- | --- | --- | --- |
| CC(C)CN(C[C@@H](O)[C@H](Cc1ccccc1)NC(=O)O[C@H]1CCOC1)S(=O)(=O)c1ccc2nc(NC(=O)CN3CCNCC3)sc2c1 [Compound 35] | 0.9 | 0.9 | 0.6 | 0.4 | 2.1 | 4.3 | 0.5 | 0.6 | 0.9 | 0.8 | 22.2 | 0.8 | 0.3 | 0.8 | 0.5 | 0.2 | 1.1 | 0.5 | 0.9 | 0.2 |  |
| Cc1cccc(C)c1OCC(=O)N[C@@H](Cc1ccccc1)[C@H](O)CN(CC(C)C)S(=O)(=O)c1ccc2nc(NC(=O)CN3CCCC3)sc2c1 [Compound 37] | 3.8 | 1.9 | 3.8 | 0.5 | 6.1 | 10.0 | 1.4 | 5.0 | 1.5 | 5.0 | 185.8 | 4.1 | 7.3 | 6.8 | 6.1 | 0.3 | 1.4 | 1.3 | 1.6 | 2.1 |  |
| Cc1cc(N)ccc1C(=O)NC(Cc1ccccc1)C(O)CN(CC(C)C)S(=O)(=O)c1ccc2nc(NC(=O)CN(C)C)sc2c1 (stereo not drawn) [Compound 43] | 1.1 | 0.9 | 1.1 | 0.4 | 1.1 | 3.0 | 0.9 | 1.2 | 1.0 | 3.4 | 31.4 | 1.3 | 2.4 | 1.5 | 1.1 | 0.2 | 1.2 | 0.6 | 0.7 | 1.0 | EC50 (HIV-1 strain LAI): < 50 nM |
| CC(C)CN(C[C@@H](O)[C@H](Cc1ccccc1)NC(=O)O[C@H]1CCOC1)S(=O)(=O)c1ccc2nc(NC(=O)CN3CCN(C)CC3)sc2c1.O=C(O)C(F)(F)F [Compound 64] | 2.3 | 0.7 | 0.6 | 0.7 | 4.6 | 17.0 | 0.6 | 0.7 | 0.6 | 1.0 | 165.5 | 0.9 | 0.8 | 1.3 | 0.7 | 0.2 | 0.9 | 0.6 | 0.7 | 0.2 |  |
